Laboratory results from ChEMBL document CHEMBL1201862, “PubChem BioAssay data set” (2004).
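96-well plates; 48 h exposure; 5 concentrations. Endpoints by linear interpolation between flanking doses. Not reached: highest tested concentration assigned. The concentration for 50% growth inhibition is given as GI50.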 Active and inactive are the calls of the source. Cut-off read from the data, not from the text of the source: active = GI50 up to about 1.1 µM and inactive = higher.

How the values were obtained:
Assay in all cases: growth of human tumour cells (NCI), 48 h
[1] = test system: A498
[2] = test system: CCRF-CEM
[3] = test system: DMS-273
[4] = test system: EKVX
[5] = test system: HCT-116
[6] = test system: HL-60
[7] = test system: HT-29
[8] = test system: K562
[9] = test system: KM-20L2
[10] = test system: LOX IMVI
[11] = test system: OVCAR-4
[12] = test system: SF-295
[13] = test system: SF-539
[14] = test system: SK-MEL-2
[15] = test system: SK-MEL-5
[16] = test system: SN12C
[17] = test system: SNB-19
[18] = test system: SW-620
[19] = test system: U-251
[20] = test system: XF498

Measured: GI50

O=CNc1cccc2c3c([nH]c12)CCCCCC3
inactive: [1] 76.6 µM | [2] > 77.8 µM | [3] > 100 µM | [4] > 100 µM | [5] > 100 µM | [6] > 100 µM | [7] > 69.3 µM | [8] 67.9 µM | [9] > 100 µM | [10] > 100 µM | [11] > 100 µM | [12] > 62.4 µM | [13] > 100 µM | [14] > 100 µM | [15] 97.5 µM | [16] > 100 µM | [17] > 100 µM | [18] > 100 µM | [19] > 100 µM | [20] > 77.1 µM
